The target in one series is RPA70N (Homo sapiens, UniProt P27694). Description: FPA competition assay. The class given is binding. The following applies: for LE (ligand efficiency): LE = 1.4*pKd/HAC, using the FPA data.
The target of series [1] is ssDNA binding to RPA70AB in the RPA70NAB construct (Homo sapiens, UniProt P27694). Description: Fluorescence-based DNA binding assay. To be noted: Kd for ssDNA binding to RPA70AB in RPA70NAB, absence vs presence of compound.
The next series can be described thus: Protein binding study. The class given is in vitro ADME.
Series [2] in a line: Caco-2 permeability study. Type of series: in vitro ADME. To be noted: human. (Passage across Caco-2 layers is used to estimate intestinal permeability.)

The values that follow come from publication PMC4838552 (ChemMedChem, 2016).

With `Cc1ccc(C(=O)Nc2ccccc2C(=O)O)cc1S(=O)(=O)Nc1ccc(Br)cc1` [Compound 11, 2-(3-(N-(4-bromophenyl)sulfamoyl)-4-methylbenzamido)benzoic acid], the “LE (ligand efficiency)” value on RPA70N turned out to be 0.21.
`Cc1ccc(C(=O)Nc2ccccc2C(=O)O)cc1S(=O)(=O)Nc1cccc(Cl)c1` [Compound 18, 2-(3-(N-(3-chlorophenyl)sulfamoyl)-4-methylbenzamido)benzoic acid]: the “LE (ligand efficiency)” value at RPA70N turned out to be 0.21. For the same compound, at RPA70N (compared with compound 11), the “potency relative to 11 (fold less potent)” value is recorded as “equipotent”.
What is called fraction unbound is free concentration divided by total concentration. Higher therefore signals much free substance. In general, Papp A→B refers to how fast a substance crosses the layer from the apical side. As for `Cc1ccc(C(=O)Nc2cc(Br)ccc2C(=O)O)cc1S(=O)(=O)Nc1ccc(Cl)c(Cl)c1` [Compound 20c, 4-Bromo-2-(3-(N-(3,4-dichlorophenyl)sulfamoyl)-4-methylbenzamido)benzoic acid], the “effect on ssDNA binding to RPA” value in series [1] is recorded as “does not affect ssDNA binding to RPA”. Moreover, the “LE (ligand efficiency)” value at RPA70N is on record as 0.27. Also, in the series “Protein binding study”, the fraction unbound is 0.002. In addition, the apparent permeability from apical to basolateral (Papp A→B) in series [2] was found to be 29.2 ×10⁻⁶ cm/s.
